Data set [1] in a line: Quantum yield determination. The class given is physicochemical. To be noted: for ϕ (fluorescence quantum yield): absolute, integrating sphere. Here is the method: (§1) Quantum yield determination. All reported absolute fluorescence quantum yield values (Φ) were measured in the laboratory under identical conditions using a Quantaurus-QY spectrometer (model C11374, Hamamatsu). This instrument uses an integrating sphere to determine photons absorbed and emitted by a sample. Measurements were carried out using dilute samples (A<0.1) and self-absorption corrections were performed using the instrument software^57 when appropriate. Reported values are averages (n=3).

Data set [2] in a line: Determination KL-Z and εmax. In kind it is physicochemical. To be noted: for εmax: 0.1% TFA in TFE (rhodamine 10), 0.1% TFA in ethanol (Si-rhodamine 8); for KL-Z (lactone-zwitterion equilibrium constant): 1:1 (v/v) dioxane:water, 0.01% triethylamine. Here is the method: Determination KL-Z and εmax. The lactone-zwitterion equilibrium constant (KL-Z) was calculated as described previously^18,41 using equation 1: KL-Z=(εdw/εmax)/(1−εdw/εmax) (1) • where εdw is the extinction coefficient of the dyes in a 1:1 (v/v) dioxane:water solvent mixture containing 0.01% (v/v) triethylamine; the dioxane-water mixture was chosen to give a large range of KL-Z values and the triethylamine additive ensures the rhodamines are in the net neutral form. The emax (maximal extinction coefficient) values were measured in 0.1% (v/v) trifluoroacetic acid (TFA) in 2,2,2-trifluoroethanol (TFE) for rhodaminc 10, and 0.1% (v/v) TFA in ethanol for the Si-rhodamine 8.
Instead, a solution of strong acid in alcoholic solvents was used (e.g., TFA in […]) to shift the equilibrium to the open form by protonation of the o-carboxyl group. This decades-old procedure^36 allows estimation of the maximal extinction coefficient (εmax) and determination of KL-Z=(ε/εmax)/(1−ε/εmax).
The KL-Z was determined using ε values measured in 1:1 dioxane:water to ensure a broad distribution of values.^18 An inverse relationship was observed between KL-Z and fluorogenicity, showing that KL-Z is sufficient to accurately predict the increase in fluorescence of rhodamine dyes. This increase in fluorescence is primarily driven by the increase in absorption; chromogenicity is correlated both with KL-Z and fluorogenicity (FIGS. 11E-11J). Importantly, this trend holds across different rhodamine scaffolds including Si-rhodamines (1-3), carborhodamines (4-5), and classic, oxygen-containing rhodamines (6-7, FIG. 1C). Based on this inverse relationship a simple rubric was determined: a dye with KL-Z<10^−2 should yield a HaloTag ligand with at least 10-fold fluorogenicity (FIG. 1E).

The conditions of data set [3]: Introduction, known dyes, cited from earlier work; for ε (extinction coefficient): free dye in aqueous solution.
For data set [4] the following is noted: Introduction, known dyes; cited from earlier work.
For data set [5] the following is noted: Introduction, known dyes; cited from earlier work. This is another data set of the same source.
Data set [6] is described as follows: UV-vis and fluorescence spectroscopy. The class given is physicochemical. Conditions: for εw / λabs / λem: 10 mM HEPES, pH 7.3; for hypsochromic shift: relative to parent dye (SiR for SiR110; JF549 for JF525). The protocol: UV-vis and fluorescence spectroscopy. […] Spectroscopy was performed using 1-cm path length, 3.5-mL quartz cuvettes or 1-cm path length, 1.0-ml quartz microcuvettes (Starna Cells). All measurements were taken at ambient temperature (22±2° C.). Absorption spectra were recorded on a Cary Model 100 spectrometer (Agilent). Fluorescence spectra were recorded on a Cary Eclipse fluorometer (Varian). Maximum absorption wavelength (λabs), extinction coefficient (εw), and maximum emission wavelength (λem) were taken in 10 mM HEPES, pH 7.3 buffer unless otherwise noted; reported values for ew are averages (n=3). Normalized spectra are shown for clarity.

A further data set deals with polyG·polyC DNA (DNAGC). The data set can be described thus: Quantum yield of 10HST following binding DNA (polyG·polyC). To be noted: PBS pH 7.4, with polyG·polyC DNA duplex. The protocol:
as §1
(§2) Measurement of increase in absorbance and fluorescence of 10HST following binding DNA. 10HST (5 μM) was added to phosphate buffered saline (PBS; pH 7.4) containing no DNA (blank), a DNA duplex with sequences 5′-A20-3′ and 5′-T20-3′ (polyA·polyT; i.e., DNAAT; 50 μM; Integrated DNA Technologies), or a DNA duplex with sequences 5′-G20-3′ and 5′-C20-3′ (polyG·polyC; i.e., DNAGC; 50 μM; Integrated DNA Technologies). These solutions were incubated for 2 h at ambient temperature, followed by measurement of absorption spectra. The solutions were then diluted to 500 nM in PBS for measurement of fluorescence spectra or diluted to 1.25 μM in PBS for measurement of quantum yield. Found: 10HST Φ=0.009; 10HST·DNAAT Φ=0.126; 10HST·DNAGC Φ=0.040.

For the next data set, the system named is polyA·polyT DNA (DNAAT). The experiment in a line: Quantum yield of 10HST following binding DNA (polyA·polyT). Conditions: PBS pH 7.4, with polyA·polyT DNA duplex. The protocol:
as §1, §2

Data set [7] is described as follows: Absorption of dyes 1 and 2 in the presence of laboratory detergents. The class given is physicochemical. To be noted: 20 mM sodium phosphate buffer, pH 7.0, 5 mg/mL detergent. Here is the method:
FIGS. 11A-11J. FIG. 11A-Absorption at λabs for dyes 1 and 2 in 20 mM sodium phosphate buffer, pH 7.0 containing 5 mg/mL detergent, error bars show±s.e.m. FIGS. 11B and 11C-Absorption spectra for dyes 1 (FIG. 11B) and 2 (FIG. 11C) near λabs in the presence (dashed line) or absence (solid line) of SDS. FIG. 11D—Chemical structures and properties of HaloTag ligands 1HTL-10HTL; ΔA/A0 indicates the change in absorption (ΔA) and ΔF/F0 indicates the change in fluorescence (ΔF) of the HaloTag ligands upon binding purified HaloTag protein divided by the basal absorption or fluorescence of the free ligand (F0 or A0). FIG. 11E—ΔA/A0 of the HaloTag ligands 1HTL-10HTL vs. KL-Z of the corresponding free dyes 1-10; the solid line indicates a linear fit (R^2=0.93). (f) ΔF/F0 vs. ΔA/A0 for the HaloTag ligands 1HTL-10HTL; the solid line indicates a linear fit (R^2=0.87). FIG. 11G—Normalized absorption (abs, solid line), normalized fluorescence excitation (ex, dashed line), and FIG. 11H—normalized fluorescence emission (em) spectra for dye 8 in 10 mM HEPES, pH 7.3.
The mechanism of SiR/JF646 fluorogenicity. […] The interaction between the Si-rhodamine dyes 1 and 2 and SDS was further characterized by measuring the absorption of 1 or 2 vs. [SDS] and observing the absorbance increase only above the critical micelle concentration (c.m.c.) of SDS (FIG. 1C). […]

Data set [8] concerns histone H2A.Z-HaloTag fusion. The experiment in a line: Comparison of HaloTag ligands 6HTL and 9HTL in live yeast. To be noted: 10 nM, 2 h, washed, wide-field fluorescence. In kind it is cell-based, S. cerevisiae. Here is the method: Comparison of HaloTag ligands 6HTL and 9HTL. in live yeast. A S. cerevisiae strain expressing a histone H2A.Z-HaloTag fusion under natural promoter control was created; the PDR5 transporter gene was also deleted for improved cellular retention of fluorescent ligands. Cells were grown to early log phase and incubated with either JF552-HaloTag ligand (9HTL; 10 nM) or JF549-HaloTag ligand (6HTL; 10 nM) for 2 h. Free ligand was removed by three washes in culture media and the live cells were imaged by wide-field fluorescence microscopy at ambient temperature.

Where two headings read alike, the source gives them in different places. A value given as a limit tells only on which side of the number the result lay.

As to `C[Si]1(C)c2cc(N3CC(F)C3)ccc2C2(OC(=O)c3ccccc32)c2ccc(N3CC(F)C3)cc21` [dye 3, JF635], the “ϕ (fluorescence quantum yield)” value in data set [1] came out at 0.56. In data set [2], the εmax is recorded as 167,000 M^−1cm^−1 and the “KL-Z (lactone-zwitterion equilibrium constant)” value is listed as below 0.0001. Also, in data set [3], the λabs is 635 nm, the λem is 652 nm and the “ε (extinction coefficient)” value is 400 M⁻¹ cm⁻¹. Moreover, the “Φ (fluorescence quantum yield)” value in data set [4] is recorded as 0.54. In addition, the KL-Z in data set [5] is listed as below 0.0001. Besides, in data set [6], the εw was around 400 M⁻¹ cm⁻¹, the λabs came out at 635 nm and the λem is 652 nm.

As for JF526-Hoechst [10HST], the Φ in data set [1] (PBS pH 7.4, no DNA (blank), 1.25 μM) was 0.009; in the data set on polyG·polyC DNA (DNAGC) it was 0.040; with polyA·polyT DNA (DNAAT), 0.126.

Take Si-Rhodamine 110 [dye 8]: the “ϕ (fluorescence quantum yield)” value in data set [1] was determined as 0.53. In addition, in [2], the εmax is on record as 94,000 M^−1cm^−1 and the “KL-Z (lactone-zwitterion equilibrium constant)” value is 0.0043. In addition, in data set [6], the εw is reported as 2,200 M^−1cm^−1, the λabs is 587 nm, the λem is recorded as 609 nm and the hypsochromic shift is around 50 nm.

As to `CC1(C)c2cc(N3CCC3)ccc2C2(OC(=O)c3ccccc32)c2ccc(N3CCC3)cc21` [dye 4, JF608], the “ϕ (fluorescence quantum yield)” value in data set [1] was found to be 0.67. Further, in data set [2], the εmax is listed as 121,000 M^−1cm^−1 and the “KL-Z (lactone-zwitterion equilibrium constant)” value is reported as 0.091. In [6], the εw is 99,000 M^−1cm^−1, the λabs was found to be 608 nm and the λem is 631 nm.

Turning to `O=C1OC2(c3ccc(N4CC(F)(F)C4)cc3Oc3cc(N4CC(F)(F)C4)ccc32)c2ccccc21` [dye 7, JF525], in [1], the “ϕ (fluorescence quantum yield)” value is given as 0.91. Moreover, in data set [2], the εmax is given as 122,000 M^−1cm^−1 and the “KL-Z (lactone-zwitterion equilibrium constant)” value worked out at 0.068. Also, in data set [6], the εw is given as 94,000 M^−1cm^−1, the λabs turned out to be 525 nm, the λem was found to be 549 nm and the hypsochromic shift was around 25 nm.

Consider `CC1(C)c2cc(N3CC(F)(F)C3)ccc2C2(OC(=O)c3ccccc32)c2ccc(N3CC(F)(F)C3)cc21` [dye 5, JF585], for which the “ϕ (fluorescence quantum yield)” value in [1] is 0.78. Also, in [2], the εmax is 156,000 M^−1cm^−1 and the “KL-Z (lactone-zwitterion equilibrium constant)” value is reported as below 0.0001. For the same compound, in [6], the εw is on record as 1,500 M^−1cm^−1, the λabs is recorded as 585 nm and the λem is reported as 609 nm.

On to `C[Si]1(C)c2cc(N3CCC3)ccc2C2(OC(=O)c3ccccc32)c2ccc(N3CCC3)cc21` [dye 2, JF646], for which, in data set [1], the “ϕ (fluorescence quantum yield)” value was found to be 0.54. In data set [2], the εmax is recorded as 152,000 M^−1cm^−1 and the “KL-Z (lactone-zwitterion equilibrium constant)” value is listed as 0.0012. For the same compound, in data set [3], the λabs is on record as 646 nm, the λem was 664 nm and the “ε (extinction coefficient)” value is 5,000 M^−1 cm^−1. In addition, the “Φ (fluorescence quantum yield)” value in data set [4] is given as 0.54. In [7], the “change of absorption with detergents” value was “absorbance increases only in the presence of SDS”. Moreover, the KL-Z in [5] is on record as 0.0012. Further, in data set [6], the εw is recorded as 5,000 M^−1cm^−1, the λabs worked out at 646 nm and the λem turned out to be 664 nm.

As to `O=C(NCCOCCOCCCCCCCl)c1ccc2c(c1)C1(OC2=O)c2ccc(N3CCC3)cc2Oc2cc(N3CCC3)ccc21` [6HTL], the “labeling of yeast nuclei (fluorescence signal)” value in data set [8] is on record as “relatively poor labeling”.

Take `O=C1OC2(c3ccc(N4CCC4)cc3Oc3cc(N4CCC4)ccc32)c2ccccc21` [dye 6, JF549]: the “ϕ (fluorescence quantum yield)” value in [1] stood at 0.88. Moreover, in data set [2], the εmax is 134,000 M^−1cm^−1 and the “KL-Z (lactone-zwitterion equilibrium constant)” value was 3.5. For the same compound, in data set [6], the εw is listed as 101,000 M^−1cm^−1, the λabs was found to be 549 nm and the λem is listed as 571 nm.

On to `O=C(NCCOCCOCCCCCCCl)c1ccc(C(=O)[O-])c(-c2c3cc(F)c(=[N+]4CCC4)cc-3oc3cc(N4CCC4)c(F)cc23)c1` [9HTL, JF552-HaloTag ligand], for which the “labeling of yeast nuclei (fluorescence signal)” value in [8] was “high fluorescence signal”.

In the case of `O=C([O-])c1ccccc1-c1c2cc(F)c(=[N+]3CCC3)cc-2oc2cc(N3CCC3)c(F)cc12` [dye 9, Janelia Fluor 552], the “ϕ (fluorescence quantum yield)” value in [1] turned out to be 0.83. In [2], the εmax is on record as 129,000 M^−1cm^−1 and the “KL-Z (lactone-zwitterion equilibrium constant)” value is reported as 0.70. In addition, the “reduction of KL-Z” value in data set [2] (relative to JF549) came out at 5 fold. Moreover, in data set [6], the εw is 95,000 M^−1cm^−1, the λabs is on record as 552 nm and the λem stood at 575 nm.

For the compound `CN(C)c1ccc2c(c1)[Si](C)(C)c1cc(N(C)C)ccc1C21OC(=O)c2ccccc21` [dye 1, tetramethyl-Si-rhodamine], in data set [1], the “ϕ (fluorescence quantum yield)” value came to 0.41. Further, in data set [2], the εmax is given as 141,000 M^−1cm^−1 and the “KL-Z (lactone-zwitterion equilibrium constant)” value amounted to 0.0034. The “Φ (fluorescence quantum yield)” value in data set [4] was 0.41. In addition, the “change of absorption with detergents” value in [7] was “absorbance increases only in the presence of SDS”. The KL-Z in data set [5] is given as 0.0034.
